Laboratory results from patent US20160213692A1, “ADVANCED METHOD OF TREATMENT AND MANAGEMENT OF CHRONIC HEPATITIS C INFECTION” (priority 2015, published 2016).
Marks after values point to notes of the source that are not given here.

What was measured:
[1] = system: male Wistar rats; assay: Haematological profile / erythrocyte indices (Sysmex XS 500) of treated rats
Method: (§1) A total of 80 male Wistar rats weighing 250-300 gm were used. All animals received humane care during the study protocol and during sacrifice.
(§2) The study duration was 5 weeks. Peg-INF-α-2a was prepared by diluting the content of a full syringe (180 μg/0.5 ml) in 9.5 ml sterile normal saline to prepare a final volume of 10 ml and the final concentration was 18 μg/ml. Each rat in the ‘P’, ‘PD’, ‘PR’ and ‘PRD’ groups received a weekly subcutaneous injection of 0.33 ml (6 μg/rat) for a total of 4 injections. The drug was prepared fresh on the day of use. […] Cholecalciferol ([…]) was prepared by adding 4 ml to 16 ml saline every morning to form a final concentration of 1000 IU/mL. Each rat in the ‘PD’, ‘PRD’, ‘PR’ and ‘VitD’ groups received 0.5 ml/day (500 IU/day) for the full study duration. Cholecalciferol, and its dose, was chosen over calcitriol, the hormonal form of vitamin D, to avoid the risk of soft tissue calcification (Salum et al, 2012). Following 4 injections, the rats were sacrificed in the fifth week at the time of the 5th injection would have been given. RBV and vitamin D3 were continued till the day before sacrifice.
(§3) All Rats were sacrificed on the same day under anesthesia using diethyl ether (Fisher Scientific UK Ltd, Loughborough, UK) a week after the last injection. 1 ml of blood was collected on EDTA for CBC and 3 ml of blood were collected in plane tube immediately after cutting the vena cava. Blood samples in plane tubes were centrifuged and the serum was stored in −20° C. for routine biochemistry and to measure serum concentrations of 25-OH vitamin D and EPO.
Whole blood samples (1 ml) collected on EDTA were processed on Sysmex XS 500 (Sysmex, IL, USA) for the measurement of hemoglobin concentrations, RBCs count, packed cell volume (PCV), mean corpuscular volume (MCV), mean corpuscular hemoglobin (MCH) an mean corpuscular hemoglobin concentration (MCHC).

[2] = system: male Wistar rats; assay: Liver and renal function parameters in serum (Cobas e411) of treated rats
Method: as §1, §2, §3
The quantitative measurement of serum liver enzymes (ALP, ALT and AST), total and indirect bilirubin, creatinine and urea was done using Cobas e411 (Roche Diagnostics International Ltd, Switzerland) according to the manufacturer protocol.

[3] = system: monkey red cells; conditions: in vitro incubation; cited from earlier work
[4] = system: rat red cells; conditions: in vitro incubation; cited from earlier work
[5] = system: human red cells; conditions: in vitro incubation; cited from earlier work
[6] = male, Wistar, rat, in vivo, 5 weeks
Method: as §1, §2
All Rats were sacrificed on the same day under anesthesia using diethyl ether (Fisher Scientific UK Ltd, Loughborough, UK) a week after the last injection. […]

[7] = whole blood, male Wistar rats, 5 weeks
[8] = serum, male Wistar rats, 5 weeks

C=C1CC[C@H](O)C/C1=C/C=C1\CCC[C@]2(C)[C@@H]([C@H](C)CCCC(C)C)CC[C@@H]12 [VitD group, cholecalciferol]
development of anemia ([1]; addition of cholecalciferol 500 IU/day to Peg-INF-α and/or RBV, rats, 5 weeks): prevented the development of anemia | Hb [1, 7]: 15.1 ± 0.7^d,f g/dL | MCH [1, 7]: 17.4 ± 0.7 pg | MCHC [1, 7]: 34 ± 0.8^c,e,g pg/dL | MCV [1, 7]: 61.3 ± 1.8 fL | PCV [1, 7]: 44.9 ± 1.8% | RBCs [1, 7]: 8.9 ± 0.5^d,f ×10^6/μl | ALT [2, 8]: 66.7 ± 4.2 U/L | AST [2, 8]: 75.8 ± 4.2 U/L | Creatinine [2, 8]: 0.2 ± 0.06 mg/dL | Indirect Bilirubin [2, 8]: 0.15 ± 0.08 mg/dL | Total Bilirubin [2, 8]: 0.51 ± 0.23 mg/dL | Urea [2, 8]: 48.1 ± 5.2 mg/dL | ALP ([2]; serum, male Wistar rats, 5 weeks, mean ± spread): 120.7 ± 12.3 IU/L

NC(=O)c1ncn([C@@H]2O[C@H](CO)[C@@H](O)[C@H]2O)n1 [R group, ribavirin]
initial drug content retained by red cells [3]: 77% | MCH ([1]; rat, in vivo): 17.6 ± 0.7 pg | MCHC ([1]; rat, in vivo): 34.4 ± 0.9^c,e pg/dL | MCV ([1]; rat, in vivo): 64.3 ± 4.2 fL | PCV ([1]; rat, in vivo): 42.1 ± 2.7% | RBCs ([1]; rat, in vivo): 7.58 ± 0.7^a,b,c,e ×10^6/μl | Hb [1, 7]: 13.1 ± 1^a,b,c,e g/dL | ALP ([2]; rat, in vivo): 119 ± 9.9 IU/L | ALT ([2]; rat, in vivo): 66.1 ± 2.6 U/L | AST ([2]; rat, in vivo): 78.4 ± 3.2 U/L | Creatinine ([2]; rat, in vivo): 0.22 ± 0.03 mg/dL | Indirect Bilirubin ([2]; rat, in vivo): 0.17 ± 0.07 mg/dL | Total Bilirubin ([2]; rat, in vivo): 0.49 ± 0.14 mg/dL | Urea ([2]; rat, in vivo): 47.3 ± 5.8 mg/dL | initial drug content retained by red cells [4]: 20% | initial drug content retained by red cells [5]: 45% | 25-OH Vitamin D [6]: 42 ± 10^c,e ng/mL
